Assay results as given in ChEMBL document CHEMBL3044788, “α-(Substituted-phenoxyacetoxy)-α-heterocyclylmethylphosphonates: synthesis, herbicidal activity, inhibition on pyruvate dehydrogenase complex (PDHc), and application as postemergent herbicide against broadleaf weeds” (J Agric Food Chem, 2013).
pIC50: −log10 of the molar value.

What was measured:
[1] = system: Chenopodium album; experiment: Herbicidal activity against Chenopodium album assessed as relative growth inhibition at 100 g/ha in greenhouse by post-emergence herbicidal activity assay; assay type: functional; details: read-out: GI
[2] = system: Beta vulgaris; experiment: Herbicidal activity against Beta vulgaris assessed as relative growth inhibition at 50 g/ha in greenhouse by post-emergence herbicidal activity assay; assay type: functional; details: read-out: GI
[3] = system: Chenopodium album; experiment: Herbicidal activity against Chenopodium album assessed as relative growth inhibition at 50 g/ha in greenhouse by post-emergence herbicidal activity assay; assay type: functional; details: read-out: GI
[4] = system: Polygonum aviculare; experiment: Herbicidal activity against Polygonum aviculare assessed as relative growth inhibition at 50 g/ha in greenhouse by post-emergence herbicidal activity assay; assay type: functional; details: read-out: GI
[5] = system: Brassica rapa subsp. oleifera; experiment: Herbicidal activity against Brassica rapa subsp. oleifera assessed as inhibition of rape root growth at 450 g/ha by pre-emergence herbicidal activity assay; assay type: functional; details: read-out: GI
[6] = system: Oryza sativa; experiment: Herbicidal activity against Oryza sativa (rice) assessed as relative growth inhibition at 450 g/ha in greenhouse by postemergence herbicidal activity assay; assay type: organism-based; details: in vivo, other
[7] = system: Polygonum aviculare; experiment: Herbicidal activity against Polygonum aviculare assessed as relative growth inhibition at 600 g/ha in greenhouse by post-emergence herbicidal activity assay; assay type: functional; details: read-out: GI
[8] = system: Zea mays; experiment: Herbicidal activity against Zea mays (maize) assessed as relative growth inhibition at 450 g/ha in greenhouse by postemergence herbicidal activity assay; assay type: organism-based; details: in vivo, other
[9] = system: Beta vulgaris; experiment: Herbicidal activity against Beta vulgaris assessed as relative growth inhibition at 450 g/ha in greenhouse by post-emergence herbicidal activity assay; assay type: functional; details: read-out: GI
[10] = system: Chenopodium album; experiment: Herbicidal activity against Chenopodium album assessed as relative growth inhibition at 450 g/ha in greenhouse by post-emergence herbicidal activity assay; assay type: functional; details: read-out: GI
[11] = system: Amaranthus blitum; experiment: Herbicidal activity against Amaranthus blitum assessed as relative growth inhibition at 450 g/ha in greenhouse by post-emergence herbicidal activity assay; assay type: functional; details: read-out: GI
[12] = system: Oryza sativa; experiment: Herbicidal activity against Oryza sativa (rice) assessed as relative growth inhibition at 300 g/ha in greenhouse by postemergence herbicidal activity assay; assay type: organism-based; details: in vivo, other
[13] = system: Polygonum aviculare; experiment: Herbicidal activity against Polygonum aviculare assessed as relative growth inhibition at 300 g/ha in greenhouse by post-emergence herbicidal activity assay; assay type: functional; details: read-out: GI
[14] = system: Beta vulgaris; experiment: Herbicidal activity against Beta vulgaris assessed as relative growth inhibition at 200 g/ha in greenhouse by post-emergence herbicidal activity assay; assay type: functional; details: read-out: GI
[15] = system: Zea mays; experiment: Herbicidal activity against Zea mays (maize) assessed as relative growth inhibition at 200 g/ha in greenhouse by postemergence herbicidal activity assay; assay type: organism-based; details: in vivo, other
[16] = system: Brassica rapa subsp. oleifera; experiment: Herbicidal activity against Brassica rapa subsp. oleifera assessed as inhibition of rape root growth at 450 g/ha by postemergence herbicidal activity assay; assay type: functional; details: post-emergence, read-out: GI
[17] = Toxicity in percutaneously dosed Rattus norvegicus (rat); assay type: organism-based; details: in vivo, topical or ocular
[18] = Inhibition of Oryza sativa (rice) PDHc by spectrophotometric assay
[19] = target: T1, Pyruvate dehydrogenase complex (Pisum sativum, UniProt P52902+P52904); experiment: Inhibition of Pisum sativum (pea) PDHc by spectrophotometric assay; assay type: protein-complex assay, Lathyrus oleraceus
T1 sequence (P52902 whole entry): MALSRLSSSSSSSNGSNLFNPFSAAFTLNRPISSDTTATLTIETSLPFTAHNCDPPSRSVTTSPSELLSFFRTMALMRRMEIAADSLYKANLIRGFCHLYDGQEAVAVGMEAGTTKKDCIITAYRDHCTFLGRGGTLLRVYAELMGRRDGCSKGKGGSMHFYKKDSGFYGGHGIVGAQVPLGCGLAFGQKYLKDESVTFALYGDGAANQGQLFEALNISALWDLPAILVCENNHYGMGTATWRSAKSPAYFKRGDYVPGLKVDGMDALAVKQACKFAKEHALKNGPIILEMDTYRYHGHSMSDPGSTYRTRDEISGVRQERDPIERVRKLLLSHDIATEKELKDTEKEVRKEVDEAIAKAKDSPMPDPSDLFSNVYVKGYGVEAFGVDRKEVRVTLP
T1 sequence (P52904 whole entry): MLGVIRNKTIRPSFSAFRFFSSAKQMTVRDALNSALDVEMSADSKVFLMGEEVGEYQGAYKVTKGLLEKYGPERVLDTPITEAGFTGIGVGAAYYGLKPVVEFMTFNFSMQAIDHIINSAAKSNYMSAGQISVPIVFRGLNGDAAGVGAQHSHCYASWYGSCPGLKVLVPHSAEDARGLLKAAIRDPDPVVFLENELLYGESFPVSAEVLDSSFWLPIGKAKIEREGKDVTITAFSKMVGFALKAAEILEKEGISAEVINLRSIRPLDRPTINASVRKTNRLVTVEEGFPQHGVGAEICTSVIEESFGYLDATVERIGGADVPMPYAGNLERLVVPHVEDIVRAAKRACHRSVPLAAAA

[20] = system: Brassica juncea; experiment: Herbicidal activity against two to three-leaf stage Brassica juncea assessed as inhibition of plant growth at 450 g/ha in greenhouse by post-emergence herbicidal activity assay; assay type: functional; details: read-out: GI
[21] = system: Chenopodium album; experiment: Herbicidal activity against Chenopodium album assessed as relative growth inhibition at 200 g/ha in greenhouse by post-emergence herbicidal activity assay; assay type: functional; details: read-out: GI
[22] = system: Amaranthus blitum; experiment: Herbicidal activity against Amaranthus blitum assessed as relative growth inhibition at 200 g/ha in greenhouse by post-emergence herbicidal activity assay; assay type: functional; details: read-out: GI
[23] = system: Beta vulgaris; experiment: Herbicidal activity against Beta vulgaris assessed as relative growth inhibition at 100 g/ha in greenhouse by post-emergence herbicidal activity assay; assay type: functional; details: read-out: GI
[24] = system: Oryza sativa; experiment: Herbicidal activity against two to three-leaf stage Oryza sativa (rice) assessed as inhibition of plant growth at 450 g/ha in greenhouse by postemergence herbicidal activity assay; assay type: organism-based; details: in vivo, other
[25] = system: Echinochloa crus-galli; experiment: Herbicidal activity against 2 to 3 leaf stage Echinochloa crus-galli (barnyard grass) assessed as inhibition of plant growth at 450 g/ha in greenhouse by postemergence herbicidal activity assay; assay type: functional; details: Echinochloa crus-galli, post-emergence; read-out: GI
[26] = system: Amaranthus retroflexus; experiment: Herbicidal activity against 2 to 3 leaf stage Amaranthus retroflexus assessed as inhibition of plant growth at 450 g/ha in greenhouse by postemergence herbicidal activity assay; assay type: functional; details: post-emergence, read-out: GI
[27] = system: Amaranthus blitum; experiment: Herbicidal activity against Amaranthus blitum assessed as relative growth inhibition at 900 g/ha in greenhouse by post-emergence herbicidal activity assay; assay type: functional; details: read-out: GI
[28] = system: Polygonum aviculare; experiment: Herbicidal activity against Polygonum aviculare assessed as relative growth inhibition at 900 g/ha in greenhouse by post-emergence herbicidal activity assay; assay type: functional; details: read-out: GI
[29] = system: Beta vulgaris; experiment: Herbicidal activity against Beta vulgaris assessed as relative growth inhibition at 600 g/ha in greenhouse by post-emergence herbicidal activity assay; assay type: functional; details: read-out: GI
[30] = system: Amaranthus retroflexus; experiment: Herbicidal activity against 2 to 3 leaf stage Amaranthus retroflexus assessed as inhibition of plant growth at 150 g/ha in greenhouse by postemergence herbicidal activity assay; assay type: functional; details: post-emergence, read-out: GI
[31] = system: Abutilon theophrasti; experiment: Herbicidal activity against two to three-leaf stage Abutilon theophrasti (velvetleaf) assessed as inhibition of plant growth at 150 g/ha in greenhouse by post-emergence herbicidal activity assay; assay type: functional; details: read-out: GI
[32] = system: Zea mays; experiment: Herbicidal activity against Zea mays (maize) assessed as relative growth inhibition at 900 g/ha in greenhouse by postemergence herbicidal activity assay; assay type: organism-based; details: in vivo, other
[33] = system: Oryza sativa; experiment: Herbicidal activity against Oryza sativa (rice) assessed as relative growth inhibition at 900 g/ha in greenhouse by postemergence herbicidal activity assay; assay type: organism-based; details: in vivo, other

## COP(=O)(OC)C(OC(=O)COc1ccc(Cl)cc1Cl)c1ccco1 (stereo not drawn)
[1]
  inhibition of growth at 100 g/ha: 90%
[2]
  inhibition of growth at 50 g/ha: 80%
[3]
  inhibition of growth at 50 g/ha: 80%
[4]
  inhibition of growth at 50 g/ha: 70%
[5]
  inhibition of growth at 450 g/ha: 94%
[6]
  growth inhibition (GI): 0%
[7]
  inhibition of growth at 600 g/ha: 100%
[8]
  growth inhibition (GI): 0%
[9]
  inhibition of growth at 450 g/ha: 100%
[10]
  inhibition of growth at 450 g/ha: 100%
[11]
  inhibition of growth at 450 g/ha: 100%
[12]
  growth inhibition (GI): 0%
[13]
  inhibition of growth at 300 g/ha: 91%
[14]
  inhibition of growth at 200 g/ha: 98%
[15]
  growth inhibition (GI): 0%
[16]
  inhibition of growth at 450 g/ha: 92%
[17]
  LD50: > 2000 mg/kg
[18]
  pIC50: 3.15
[19]
  pIC50: 4.55
[20]
  inhibition of growth at 450 g/ha: 96.5%
[21]
  inhibition of growth at 200 g/ha: 100%
[22]
  inhibition of growth at 200 g/ha: 100%
[23]
  inhibition of growth at 100 g/ha: 80%
[24]
  growth inhibition (GI): 10%
[25]
  inhibition of growth at 450 g/ha: 25%
[26]
  inhibition of growth at 450 g/ha: 100%
[27]
  inhibition of growth at 900 g/ha: 100%
[28]
  inhibition of growth at 900 g/ha: 100%
[29]
  inhibition of growth at 600 g/ha: 100%
[30]
  inhibition of growth at 150 g/ha: 95%
[31]
  inhibition of growth at 150 g/ha: 95%
[32]
  growth inhibition (GI): 0%
[33]
  growth inhibition (GI): 0%
